Data reported in patent US10532103B2, “Degradation of cyclin-dependent kinase 9 (CDK9) by conjugation of CDK9 inhibitors with E3 ligase ligand and methods of use” (Dana-Farber Cancer Institute, Inc., priority 2016, dated 2020).
“Also recorded” adds a separate entry of the source.

Legend:
Format in all cases: cell-based
CDK9 = target: T1, CDK9 (Homo sapiens, UniProt P50750); test: Enzyme degradation assay (western blot) in Jurkat cells, CDK9
T1 construct: endogenous in cells; host or cells: Jurkat cells
T1 sequence (P50750 whole entry): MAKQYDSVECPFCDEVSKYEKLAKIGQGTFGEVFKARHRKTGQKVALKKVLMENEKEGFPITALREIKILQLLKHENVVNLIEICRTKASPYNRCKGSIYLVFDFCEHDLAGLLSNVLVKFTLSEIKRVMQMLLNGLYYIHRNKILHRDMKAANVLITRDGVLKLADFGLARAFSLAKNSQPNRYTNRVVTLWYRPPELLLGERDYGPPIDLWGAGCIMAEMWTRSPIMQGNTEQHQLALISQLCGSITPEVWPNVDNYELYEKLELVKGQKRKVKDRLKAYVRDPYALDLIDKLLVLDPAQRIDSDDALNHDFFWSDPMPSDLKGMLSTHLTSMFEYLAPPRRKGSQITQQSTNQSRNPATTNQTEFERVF
T1 sequence (O60563 whole entry partner): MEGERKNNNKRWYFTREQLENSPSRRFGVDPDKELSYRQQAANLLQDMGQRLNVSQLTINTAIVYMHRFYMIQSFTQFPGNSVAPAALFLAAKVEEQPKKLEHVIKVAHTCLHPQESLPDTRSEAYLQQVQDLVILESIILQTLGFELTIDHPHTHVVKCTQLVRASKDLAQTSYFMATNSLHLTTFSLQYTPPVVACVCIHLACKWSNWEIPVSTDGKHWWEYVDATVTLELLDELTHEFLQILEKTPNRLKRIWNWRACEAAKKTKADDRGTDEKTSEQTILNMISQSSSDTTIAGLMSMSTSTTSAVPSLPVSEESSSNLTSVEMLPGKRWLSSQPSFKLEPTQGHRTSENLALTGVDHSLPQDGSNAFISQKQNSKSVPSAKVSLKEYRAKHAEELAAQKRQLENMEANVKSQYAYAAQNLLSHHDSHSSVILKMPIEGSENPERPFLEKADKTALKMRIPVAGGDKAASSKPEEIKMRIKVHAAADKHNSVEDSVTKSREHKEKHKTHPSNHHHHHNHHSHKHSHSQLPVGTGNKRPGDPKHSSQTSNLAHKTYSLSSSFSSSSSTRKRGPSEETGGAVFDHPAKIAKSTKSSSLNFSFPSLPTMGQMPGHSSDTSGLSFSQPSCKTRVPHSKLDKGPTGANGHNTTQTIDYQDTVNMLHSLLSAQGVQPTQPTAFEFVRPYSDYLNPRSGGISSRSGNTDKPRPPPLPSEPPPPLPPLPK
Method: (§1) Cells are treated with a control or a bifunctional compound of the application alone or in combination with an agent that blocks proteasomal degradation at a single concentration or various concentrations. After treatment, cells are washed and harvested by resuspending in buffer and lysed on ice 30 minutes. Lysates are then cleared by centrifugation. Samples are boiled and equal amount of protein is loaded onto polyacrylamide gel. The gel is transferred to nitrocellulose and blotted for CDK13, CDK12, CDK9, CDK7, CDK2, CDK1, PolII serine 2 phosphorylation or Tubulin.
(§2) Jurkat cells were treated with DMSO (as a control) or 500 nM of SNS-032 or 500 nM of a bifunctional compound of the application (i.e., Compound I-1, Compound I-2, or Compound I-3) or in combination with 5 μM MG132 for 6 hours. MGl32 is an agent that blocks proteasomal degradation. After treatment, cells were washed and harvested by resuspending in RIPA lysis buffer ([…] Tris-HCl, […] NaCl, 1% NP-40, 0.5% sodium deoxycholate, and 1% SDS, pH 7.4, protease and phosphatase inhibitors) and lysed on ice 30 minutes. Lysates were cleared by centrifugation at 15,000 rpm 30 minutes. Samples were boiled and equal amounts of protein were loaded onto gel. The gel was transferred to nitrocellulose and blotted for CDK13, CDK12, CDK9, CDK7, CDK2, CDK1, or tubulin.
(§3) Alternatively, Jurkat cells were treated with DMSO (as a control) or various concentrations of Compound I-3 alone (about 312 nm, 625 nm, 1.25 uM, 2.5 uM, and 5 uM) or with 5 μM MG132. After treatment, cells were washed and harvested by resuspending in RIPA lysis buffer ([…] Tris-HCl, […] NaCl, 1% NP-40, 0.5% sodium deoxycholate, and 1% SDS, pH 7.4, protease and phosphatase inhibitors) and lysed on ice 30 minutes. Equal amount of protein was loaded onto gel and blotted for CDK13, CDK9, CDK7, CDK2, CDK1, or tubulin.
(§4) Jurkat cells were treated with a DMSO (as a control) or various concentrations SNS-032 or Compound I-3 for 6 hours. After treatment, cells were washed and harvested by resuspending in RIPA lysis buffer ([…] Tris-HCl, […] NaCl, 1% NP-40, 0.5% sodium deoxycholate, and 1% SDS, pH 7.4, protease and phosphatase inhibitors) and lysed on ice 30 minutes. Equal amount of protein was loaded onto gel and blotted for PolI serine 2 phosphorylation, CDK9, or tubulin.
as §4, with “500 nM of” for “a DMSO (as a control) or various concentrations SNS-032 or”, “I-3 for 15 minutes, 30 minutes, 1 hour, 2 hours, 3 hours, 4 hours, or 6 hours or DMSO control” for “I-3”, “CDK13, CDK12,” for “PolI serine 2 phosphorylation,”

[1] = test system: PolII serine 2 phosphorylation; test: Western blot for PolII serine 2 phosphorylation in Jurkat cells; conditions: various concentrations, 6 hours
Method: as §1, §4

Molt4 wild-type cells = test: Cell viability assay (celltiter glo), wild-type cells; conditions: wild-type (WT) Molt4 cells, titration, 72 hours
Method: (§5) Wild-type or cereblon null cells are treated with various concentrations of a bifunctional compound of the invention and allowed to grow. Cells are then assayed to determine cell viability by measuring the amount of ATP present, which is an indicator of cell metabolic activity. Results are graphed as relative luminescent values.
(§6) Molt4 wild-type or cereblon null cells were treated with a titration of a bifunctional compound of the invention (i.e., Compound I-1, Compound I-2, or Compound I-3) and allowed to grow for 72 hours. Cells were assayed using celltiter glo (Promega) to determine cell viability by measuring the amount of ATP present, which is an indicator of cell metabolic activity. Results are graphed as relative luminescent values.

CDK13 = target: T2, CDK13 (Homo sapiens, UniProt Q14004); test: Enzyme degradation assay (western blot) in Jurkat cells, CDK13
T2 construct: endogenous in cells; host or cells: Jurkat cells
T2 sequence (Q14004 whole entry): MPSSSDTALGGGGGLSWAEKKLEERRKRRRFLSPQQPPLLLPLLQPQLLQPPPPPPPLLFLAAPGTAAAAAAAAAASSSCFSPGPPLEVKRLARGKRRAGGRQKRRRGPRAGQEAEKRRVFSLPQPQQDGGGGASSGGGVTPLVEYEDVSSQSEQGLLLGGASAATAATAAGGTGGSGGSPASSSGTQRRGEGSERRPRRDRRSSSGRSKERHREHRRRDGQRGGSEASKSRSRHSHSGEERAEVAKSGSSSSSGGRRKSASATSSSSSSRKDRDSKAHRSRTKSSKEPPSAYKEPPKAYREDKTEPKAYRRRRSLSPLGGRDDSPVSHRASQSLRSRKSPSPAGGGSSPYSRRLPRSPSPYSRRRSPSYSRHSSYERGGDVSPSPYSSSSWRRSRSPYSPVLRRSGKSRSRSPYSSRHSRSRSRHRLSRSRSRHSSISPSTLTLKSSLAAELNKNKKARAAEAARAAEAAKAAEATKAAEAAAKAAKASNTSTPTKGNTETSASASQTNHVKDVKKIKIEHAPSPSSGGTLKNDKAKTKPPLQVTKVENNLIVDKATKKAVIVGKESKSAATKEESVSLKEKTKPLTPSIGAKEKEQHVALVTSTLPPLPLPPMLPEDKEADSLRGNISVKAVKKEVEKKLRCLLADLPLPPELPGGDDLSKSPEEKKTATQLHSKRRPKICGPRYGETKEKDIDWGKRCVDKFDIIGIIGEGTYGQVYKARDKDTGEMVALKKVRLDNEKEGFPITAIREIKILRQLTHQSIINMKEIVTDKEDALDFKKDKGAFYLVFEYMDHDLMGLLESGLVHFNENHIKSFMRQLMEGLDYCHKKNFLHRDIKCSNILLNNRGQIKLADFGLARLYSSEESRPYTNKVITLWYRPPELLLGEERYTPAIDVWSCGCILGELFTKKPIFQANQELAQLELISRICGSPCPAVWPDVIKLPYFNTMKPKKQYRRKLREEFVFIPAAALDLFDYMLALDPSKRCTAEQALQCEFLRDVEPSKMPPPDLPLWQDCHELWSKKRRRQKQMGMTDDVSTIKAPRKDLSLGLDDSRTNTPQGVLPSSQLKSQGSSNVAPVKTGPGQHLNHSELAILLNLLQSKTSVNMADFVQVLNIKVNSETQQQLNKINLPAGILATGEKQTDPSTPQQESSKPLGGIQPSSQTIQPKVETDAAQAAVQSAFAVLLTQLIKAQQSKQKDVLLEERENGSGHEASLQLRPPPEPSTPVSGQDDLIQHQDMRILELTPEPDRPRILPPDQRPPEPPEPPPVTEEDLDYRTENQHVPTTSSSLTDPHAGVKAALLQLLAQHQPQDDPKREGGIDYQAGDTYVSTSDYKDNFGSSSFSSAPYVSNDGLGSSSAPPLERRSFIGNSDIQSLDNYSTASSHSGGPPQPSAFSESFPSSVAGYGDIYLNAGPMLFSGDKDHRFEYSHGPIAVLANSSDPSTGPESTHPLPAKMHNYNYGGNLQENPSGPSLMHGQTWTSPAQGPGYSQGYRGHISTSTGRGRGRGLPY
T2 sequence (O75909 whole entry partner): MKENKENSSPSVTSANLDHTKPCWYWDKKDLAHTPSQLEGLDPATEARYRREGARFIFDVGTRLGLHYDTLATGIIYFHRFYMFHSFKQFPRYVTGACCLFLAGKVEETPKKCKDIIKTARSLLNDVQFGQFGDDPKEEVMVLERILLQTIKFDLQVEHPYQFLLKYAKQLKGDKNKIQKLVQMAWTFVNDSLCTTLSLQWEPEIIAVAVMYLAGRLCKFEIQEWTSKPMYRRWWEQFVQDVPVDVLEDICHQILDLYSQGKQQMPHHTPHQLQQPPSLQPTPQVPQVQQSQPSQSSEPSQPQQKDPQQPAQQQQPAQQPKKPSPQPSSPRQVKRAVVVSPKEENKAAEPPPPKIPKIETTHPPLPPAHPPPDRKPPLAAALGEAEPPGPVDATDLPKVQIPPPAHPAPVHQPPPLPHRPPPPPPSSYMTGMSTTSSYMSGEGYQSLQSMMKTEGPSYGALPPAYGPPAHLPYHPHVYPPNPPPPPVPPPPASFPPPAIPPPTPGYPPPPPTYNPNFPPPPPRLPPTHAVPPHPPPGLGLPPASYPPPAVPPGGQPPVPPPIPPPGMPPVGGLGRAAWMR
Method: as §1, §2, §3
as §4, with “500 nM of” for “a DMSO (as a control) or various concentrations SNS-032 or”, “I-3 for 15 minutes, 30 minutes, 1 hour, 2 hours, 3 hours, 4 hours, or 6 hours or DMSO control” for “I-3”, “CDK13, CDK12,” for “PolI serine 2 phosphorylation,”

CDK12 = target: T3, CDK12 (Homo sapiens, UniProt Q9NYV4); test: Enzyme degradation assay (western blot) in Jurkat cells, CDK12; conditions: for degradation of CDK12: 6 hours
T3 construct: endogenous in cells; host or cells: Jurkat cells
T3 sequence (Q9NYV4 whole entry): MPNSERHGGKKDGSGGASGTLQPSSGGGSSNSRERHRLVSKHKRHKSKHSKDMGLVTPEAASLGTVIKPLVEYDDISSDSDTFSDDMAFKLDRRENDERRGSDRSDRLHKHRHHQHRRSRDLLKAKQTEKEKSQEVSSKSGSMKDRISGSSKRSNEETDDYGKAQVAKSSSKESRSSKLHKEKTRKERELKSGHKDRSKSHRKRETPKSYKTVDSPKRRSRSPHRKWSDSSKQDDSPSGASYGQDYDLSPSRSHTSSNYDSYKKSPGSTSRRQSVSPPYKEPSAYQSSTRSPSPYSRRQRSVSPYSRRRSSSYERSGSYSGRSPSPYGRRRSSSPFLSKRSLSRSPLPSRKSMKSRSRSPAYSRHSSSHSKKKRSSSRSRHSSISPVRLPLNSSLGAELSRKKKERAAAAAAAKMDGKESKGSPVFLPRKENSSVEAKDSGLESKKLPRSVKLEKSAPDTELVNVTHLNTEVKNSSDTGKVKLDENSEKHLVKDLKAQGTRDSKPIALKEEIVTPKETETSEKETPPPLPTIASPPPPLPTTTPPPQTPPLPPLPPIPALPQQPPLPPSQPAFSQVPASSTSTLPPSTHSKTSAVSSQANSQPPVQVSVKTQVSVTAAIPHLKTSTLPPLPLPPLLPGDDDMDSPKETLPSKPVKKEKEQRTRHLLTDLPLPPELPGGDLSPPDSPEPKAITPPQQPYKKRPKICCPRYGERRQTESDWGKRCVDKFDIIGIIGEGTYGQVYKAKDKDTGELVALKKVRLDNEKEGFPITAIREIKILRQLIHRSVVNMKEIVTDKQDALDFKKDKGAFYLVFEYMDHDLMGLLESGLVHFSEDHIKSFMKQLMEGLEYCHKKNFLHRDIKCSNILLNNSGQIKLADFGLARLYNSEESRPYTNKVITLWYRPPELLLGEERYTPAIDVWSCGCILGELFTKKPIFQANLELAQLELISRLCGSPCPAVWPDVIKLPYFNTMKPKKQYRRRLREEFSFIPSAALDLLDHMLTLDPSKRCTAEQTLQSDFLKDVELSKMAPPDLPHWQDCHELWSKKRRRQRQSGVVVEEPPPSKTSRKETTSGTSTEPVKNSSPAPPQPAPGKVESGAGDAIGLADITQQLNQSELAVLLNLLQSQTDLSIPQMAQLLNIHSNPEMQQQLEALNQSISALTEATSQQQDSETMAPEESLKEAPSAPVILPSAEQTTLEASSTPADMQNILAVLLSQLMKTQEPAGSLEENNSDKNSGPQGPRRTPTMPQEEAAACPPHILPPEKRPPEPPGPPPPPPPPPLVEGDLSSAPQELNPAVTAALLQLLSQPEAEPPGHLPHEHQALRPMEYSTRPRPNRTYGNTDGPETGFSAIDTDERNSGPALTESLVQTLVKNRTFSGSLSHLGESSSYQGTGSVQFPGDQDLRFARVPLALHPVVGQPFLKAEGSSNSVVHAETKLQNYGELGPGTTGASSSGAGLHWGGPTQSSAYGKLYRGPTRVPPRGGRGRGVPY
T3 sequence (O75909 whole entry partner): as the sequence (O75909 whole entry partner) above
Method: as §1, §2
as §4, with “500 nM of” for “a DMSO (as a control) or various concentrations SNS-032 or”, “I-3 for 15 minutes, 30 minutes, 1 hour, 2 hours, 3 hours, 4 hours, or 6 hours or DMSO control” for “I-3”, “CDK13, CDK12,” for “PolI serine 2 phosphorylation,”

[2] = test system: Molt4 cereblon null cells (CRBN−/−); test: Cell viability assay (celltiter glo), cereblon null cells; conditions: cereblon knockout (CRBN−/−) Molt4 cells, titration, 72 hours
Method: as §5, §6

`CC(C)(C)c1cnc(CSc2cnc(NC(=O)C3CCN(CC(=O)NCCOCCOCCOCCNc4cccc5c4C(=O)N(C4CCC(=O)NC4=O)C5=O)CC3)s2)o1` (centres unmarked) [Compound I-3, N-(5-(((5-(tert-butyl)oxazol-2-yl)methyl)thio)thiazol-2-yl)-1-(14-((2-(2,6-dioxopiperidin-3-yl)-1,3-dioxoisoindolin-4-yl)amino)-2-oxo-6,9,12-trioxa-3-azatetradecyl)piperidine-4-carboxamide] was tested, and the “degradation of CDK9 on co-treatment with MG132” value (CDK9; 500 nM + 5 uM MG132, 6 hours) was “reduced; also recorded: largely inhibited”, the “CDK9 levels over time” value (CDK9; 500 nM, 15 minutes to 6 hours) was “decrease in CDK9 levels over time; also recorded: degradation of CDK9 increased with time of exposure” and the “degradation of CDK9” value (CDK9; 500 nM, 6 hours) was “complete degradation”. For the same compound, the “degradation of CDK9, various concentrations” value (CDK9; about 312 nm to 5 uM, 6 hours) was “specificity for CDK9 at lower concentrations; also recorded: degradation also increased”, the “degradation of CDK9, various concentrations, with MG132” value (CDK9; with 5 μM MG132, 6 hours) was “abolished degradation of CDK9” and the “serine 2 phosphorylation of PolII” value [1] was “decreased serine 2 phosphorylation”. For the same compound, the anti-proliferative effect (Molt4 wild-type cells) was “showed antiproliferative effects; also recorded: caused anti-proliferation”, the “degradation of CDK13 on co-treatment with MG132” value (CDK13; 500 nM + 5 uM MG132, 6 hours) was “abolished; also recorded: largely inhibited” and the “CDK13 levels over time” value (CDK13; 500 nM, 15 minutes to 6 hours) was “unaffected”. For the same compound, the “degradation of CDK13” value (CDK13; 500 nM, 6 hours) was “partial degradation”, the “degradation of CDK13, various concentrations” value (CDK13; about 312 nm to 5 uM, 6 hours) was “CDK13 degradation at higher concentrations; also recorded: degradation also increased” and the “degradation of CDK13, various concentrations, with MG132” value (CDK13; with 5 μM MG132, 6 hours) was “abolished”. For the same compound, the “degradation of CDK12 on co-treatment with MG132” value (CDK12; 500 nM + 5 uM MG132, 6 hours) was “abolished; also recorded: largely inhibited”, the “CDK12 levels over time” value (CDK12; 500 nM, 15 minutes to 6 hours) was “unaffected” and the “degradation of CDK12” value (CDK12; 500 nM) was “partial degradation”. For the same compound, the anti-proliferative effect [2] was “not in the CRBN−/− cells; also recorded: anti-proliferation was no longer observed”.
With `CC(C)(C)c1cnc(CSc2cnc(NC(=O)C3CCNCC3)s2)o1` [SNS032, N-(5-(((5-(tert-butyl)oxazol-2-yl)methyl)thio)thiazol-2-yl)piperidine-4-carboxamide, reference compound] the “degradation of CDK9” value (CDK9; 500 nM, 6 hours) was “no degradation”, the “serine 2 phosphorylation of PolII” value [1] was “decreased serine 2 phosphorylation” and the “degradation of CDK13” value (CDK13; 500 nM, 6 hours) was “no degradation”. The “degradation of CDK12” value (CDK12; 500 nM) was “no degradation”.
